In patent US20100022559A1, “BISOXIMES AS FUNGICIDES” (BAYER CROPSCIENCE AG, priority 2006, published 2010):

Assay: logP determination by HPLC on a reversed-phase column (C 18), EEC Directive 79/831 Annex V.A8
Assay type: physicochemical
Experimental: The stated logP values were determined in accordance with EEC Directive 79/831 Annex V.A8 by HPLC (high performance liquid chromatography) on a reversed-phase column (C 18). Temperature: 43° C.

[1] = method marker [a] (footnote not shown), isomer A / isomer B / isomer mixture as noted in the cell
[2] = method marker [b], isomer A / isomer B / isomer mixture as noted in the cell

Question: Which logP (value marked [b]) does the source give for CC(=NOCC(C)(C)CON=C(C)c1nc(C)c(C)s1)c1cccc(C)n1 [compound 411] here?
Answer: 5.36^[b]

Question: Which logP (value marked [b]) does the source give for C=C(CON=C(C)c1cccc(C)n1)CON=C(C)c1cccc2ccccc12 [compound 406] here?
Answer: 5.02^[b]

Question: Which logP (value marked [a]) does the source give for CC(=NOCC(C)CON=C(C)c1cc(C(F)(F)F)cc(C)n1)c1cc(C(F)(F)F)cc(C)n1 (stereo not drawn) [compound 869] here?
Answer: 7.36^[a]

Question: What about the logP (value marked [b]) of the same compound?
Answer: 7.36^[b]

Question: And the logP (value marked [c])?
Answer: 5.53^[c]

Question: Which logP (method marked [b] in Table 1) does the source give for CC(=NOCC1(CON=C(C)c2cc(C)cc(C)n2)CC(c2cccc(Cl)c2)=NO1)c1cc(C)cc(C)n1 (stereo not drawn) [compound 646] here?
Answer: 3.28^[b]

Question: For C=CCCC(=NOCCCON=C(CCC=C)c1ncccc1C)c1ncccc1C [compound 129], which logP [1] is on record?
Answer: 4.59^[a]

Question: With C=C(CON=C(CC)c1cccc(C)n1)CON=C(CC)c1cccc(C)n1 [Compound 239] as the compound, how does the logP [1] read?
Answer: 5.16^[a]

Question: With C=C(CON=C(C)c1cccc(COC)n1)CON=C(C)c1cccc(COC)n1 [compound 291] as the compound, how does the logP (value marked [b]) read?
Answer: 4.44^[b]

Question: For CC(=NOCC(C)CON=C(C)c1cccc(Cc2ccccc2)n1)c1cccc(Cc2ccccc2)n1 (stereo not drawn) [Compound 173], which logP [1] is on record?
Answer: 7.36^[a]

Question: Which logP [1] does the source give for Cc1cccnc1C(=NOCC(C)CON=C(c1ncccc1C)C(C)C)C(C)C (mixture of isomers) [compound 103] here?
Answer: 4.28^[a]

Question: For CC(=NOCCCCCCON=C(C)c1cncc(C)n1)c1cccc(C)n1 [compound 466], which logP (value marked [b]) is on record?
Answer: 4.8^[b]

Question: For CC(=NOc1nc(Cl)nc(ON=C(C)c2cccc(C)n2)c1Cl)c1cccc(C)n1 (single isomer, unassigned) [compound 780], which logP (value marked [b]) is on record?
Answer: 4.22^[b]

Question: And the logP (value marked [c])?
Answer: 4.88^[c]

Question: Which logP (value marked [b]) does the source give for C=C(CON=C(C)c1cccc(C)n1)CON=C(c1ccccc1)c1ncccc1C [compound 351] here?
Answer: 3.89^[b]

Question: Which logP (method marked [a] in Table 1) does the source give for CC(=NOCC(C)(C)CON=C(C)c1cccc(-c2ccc(Cl)c(C(F)(F)F)c2)n1)c1cccc(-c2ccc(Cl)c(C(F)(F)F)c2)n1 [compound 577] here?
Answer: 7.36^[a]

Question: For C=C(CON=C(C)c1ncc(Cl)cc1Cl)CON=C(C)c1ncc(Cl)cc1Cl [compound 153], which logP [2] is on record?
Answer: 5.75^[b]

Question: With C=CCCC(=NOCC(=C)CON=C(C)c1cccc(C)n1)c1ncccc1C [compound 353] as the compound, how does the logP (value marked [b]) read?
Answer: 4.56^[b]

Question: Which logP [2] does the source give for CC(=NOCCON=C(C)c1ccccn1)c1ccccn1 [compound 30] here?
Answer: 2.21^[b]

Question: Which logP (value marked [b]) does the source give for C=C(CON=C(C)c1cccc(C)n1)CON=C(C)c1cc(C)cc(C)n1 [Compound 474] here?
Answer: 2.55^[b]

Question: Which results are given for C/C(=N\OCC1(CON)CC1)c1cccc(C)n1 [XII-13]?
Answer: logP ([a] acidic range, pH 2.3, 0.1% aqueous phosphoric acid and acetonitrile): 0.78^[a]; logP ([b] LC-MS, acidic range, pH 2.7, 0.1% aqueous formic acid and acetonitrile): 0.78^[b]; logP ([c] LC-MS, neutral range, pH 7.8, 0.001 molar aqueous ammonium bicarbonate solution and acetonitrile): 2.11^[c]

Question: For CCC(=NOCCCCCCON=C(C)c1cccc(C)n1)c1cccc(C)n1 [Compound 346], which logP (value marked [b]) is on record?
Answer: 5.59^[b]

Question: For CC(=NOCC1(CON=C(C)c2ccc(C)c(C)n2)CCCC1)c1ccc(C)c(C)n1 [Compound 588], which logP (method marked [b] in Table 1) is on record?
Answer: 4.92^[b]

Question: And the logP (method marked [c] in Table 1)?
Answer: 7.36^[c]

Question: Which logP (method marked [b] in Table 1) does the source give for CC(=NOCCC(C)ON=C(C)c1cc(C)cc(C)n1)c1cc(C)cc(C)n1 (stereo not drawn) [Compound 558] here?
Answer: 2.00^[b]

Question: And the logP (method marked [c] in Table 1)?
Answer: 6.11^[c]

Question: For C=C(CON=C(C)c1cccc(C)n1)CON=C(C)c1cc(OC)cc(C)n1 (single isomer, unassigned) [Compound 476], which logP (value marked [b]) is on record?
Answer: 3.33^[b] (isomer B)

Question: Which logP (value marked [a]) does the source give for CCCC(=NOCC(C)(C)CON=C(CCC)c1cccc(C)n1)c1cccc(C)n1 [Compound 279] here?
Answer: 7.25^[a]

Question: With C/C(=N\OCC(=O)CO/N=C(\C)c1cccc(C)n1)c1cccc(C)n1 [(2E,9E)-2,10-bis(6-methylpyridin-2-yl)-4,8-dioxa-3,9-diazaundeca-2,9-dien-6-one] as the compound, how does the chromatographic logP (reversed-phase HPLC column (C 18), HCO2H, HPLC reversed-phase column (C 18), 43° C., read-out: logP (HCO2H)) read?
Answer: 2.2

Question: With CC(=NOCC(C)CON=C(C)c1cc(C(C)(C)C)ccn1)c1cc(C(C)(C)C)ccn1 (stereo not drawn) [compound 104] as the compound, how does the logP [1] read?
Answer: 5.88^[a]

Question: With C=C(CON=C(C)c1cccc(C)n1)CON=C(CC)c1cccc(C)n1 [compound 358] as the compound, how does the logP (value marked [b]) read?
Answer: 4.30^[b]

Question: With CC(=NOCC(C)CON=C(C)c1nc(C)cc(C(F)(F)F)n1)c1nc(C)cc(C(F)(F)F)n1 (stereo not drawn) [compound 273] as the compound, how does the logP (value marked [b]) read?
Answer: 4.86^[b]

Question: For CC(=NOCC1(CON=C(C)c2cccc(C)n2)CC1)c1cccc(C)n1 [Compound 15], which logP [2] is on record?
Answer: 3.44^[b]

Question: With CC(=NOCc1ccc(CON=C(C)c2nc(C)c(C)s2)cc1)c1nc(C)c(C)s1 [compound 736] as the compound, how does the logP (method marked [b] in Table 1) read?
Answer: 5.84^[b]

Question: For CC(=NOCC1(CON=C(C)c2cccc(C)n2)CC(c2ccccc2)=NO1)c1cccc(C)n1 (stereo not drawn) [Compound 593], which logP (method marked [a] in Table 1) is on record?
Answer: 3.74^[a]

Question: With CCC(=NOCC(C)(C)CON=C(C)c1cccc(C)n1)c1ncccc1C [compound 369] as the compound, how does the logP (value marked [b]) read?
Answer: 4.51^[b]

Question: Which logP (method marked [b] in Table 1) does the source give for Cc1cc(C)nc(/C(N)=N/OCc2cccc(CO/N=C(\N)c3nc(C)cc(C)n3)c2)n1 [compound 701] here?
Answer: 2.13^[b]

Question: Which logP [2] does the source give for C=C(CO/N=C(\N)c1ncc(F)cc1F)CO/N=C(\N)c1ncc(F)cc1F [compound 45] here?
Answer: 2.42^[b]

Question: For CC(=NOCCCCCCON=C(C)c1cccc(C)n1)c1ccncc1 [compound 454], which logP (value marked [b]) is on record?
Answer: 2.62^[b]

Question: Which logP (method marked [c] in Table 1) does the source give for CC(=NOCc1cccc(CON=C(C)c2cc(C)cc(C)n2)n1)c1cc(C)cc(C)n1 [compound 742] here?
Answer: 4.96^[c]

Question: Which logP (value marked [b]) does the source give for CCCC(CON=C(C)c1cccc(C)n1)CON=C(C)c1cccc(C)n1 (stereo not drawn) [Compound 270] here?
Answer: 5.14^[b]

Question: What does the source list for CCC(C)(CON=C(C)c1cccc(C)n1)CON=C(C)c1cccc(C)n1 (stereo not drawn) [Compound 788]?
Answer: logP (value marked [b]): 5.73^[b]; logP (value marked [c]): 6.47^[c]

Question: For CC(=NOCC(C)CON=C(C)c1cc(C)cc(C)n1)c1cc(C)cc(C)n1 (stereo not drawn) [Compound 225], which logP [1] is on record?
Answer: 2.11^[a]

Question: Which logP (method marked [b] in Table 1) does the source give for CC(=NOCC#CCON=C(C)c1cccc(C)n1)c1cccc(C)n1 [Compound 706] here?
Answer: 3.12^[b]

Question: Which logP (method marked [b] in Table 1) does the source give for CC(=NOCC(CON=C(C)c1nc(C)ccc1C)C(C)C)c1nc(C)ccc1C (single isomer, unassigned) [Compound 753] here?
Answer: 4.51^[b]

Question: And the logP (method marked [c] in Table 1)?
Answer: 5.95^[c]

Question: Which logP (method marked [b] in Table 1) does the source give for C/C(=N\OCC1(CO/N=C(\C)c2cccc(C)n2)CC(c2cccc(Cl)c2)=NO1)c1cccc(C)n1 [compound 603] here?
Answer: 4.67^[b]

Question: For CCCC(=NOCC(C)CON=C(CCC)c1ccc(C)c(C)n1)c1ccc(C)c(C)n1 (stereo not drawn) [Compound 262], which logP (value marked [a]) is on record?
Answer: 6.26^[a]

Question: For CCCC1=NOC(CON=C(C)c2cc(C)cc(C)n2)(CON=C(C)c2cc(C)cc(C)n2)C1 (stereo not drawn) [compound 640], which logP (method marked [b] in Table 1) is on record?
Answer: 2.20^[b]

Question: With C=C(CON=C(C)c1cccnc1)CON=C(C)c1cccc(C)n1 [compound 407] as the compound, how does the logP (value marked [b]) read?
Answer: 2.15^[b]

Question: Which logP [1] does the source give for CCCC(=NOCCON=C(CCC)c1cccc(C)n1)c1cccc(C)n1 [compound 226] here?
Answer: 5.18^[a]

Question: With CC(=NOCCCCCCON=C(C)c1ccccc1Cl)c1cccc(C)n1 [compound 391] as the compound, how does the logP (value marked [b]) read?
Answer: 5.84^[b]

Question: For Cc1cccc(C(C#N)=NOCC(C)CON=C(C#N)c2cccc(C)n2)n1 (stereo not drawn) [compound 827], which logP (value marked [a]) is on record?
Answer: 4.20^[a]

Question: With CC(=NOc1nc(Cl)nc(ON=C(C)c2cccc(C)n2)c1Cl)c1cccc(C)n1 (single isomer, unassigned) [compound 779] as the compound, how does the logP (value marked [b]) read?
Answer: 4.62^[b]

Question: What about the logP (value marked [c]) of the same compound?
Answer: 5.09^[c]

Question: With CC(=NOCCCON=C(C)c1ccc(C)nc1)c1ccc(C)nc1 [compound 228] as the compound, how does the logP [1] read?
Answer: 1.27^[a]

Question: With CC(=NOCC(O)(CON=C(C)c1cccc(C)n1)CON=C(C)c1cccc(C)n1)c1cccc(C)n1 (stereo not drawn) [compound 221] as the compound, how does the logP [1] read?
Answer: 2.65^[a)

Question: With CC(=NOCC(C)CON=C(C)c1cccc(-c2cccc(C)n2)n1)c1cccc(-c2cccc(C)n2)n1 (stereo not drawn) [compound 551] as the compound, how does the logP (method marked [b] in Table 1) read?
Answer: 6.24^[b]

Question: What about the logP (method marked [c] in Table 1) of the same compound?
Answer: 3.26^[c]

Question: With Cc1nc(/C(N)=N/OCc2cccc(CO/N=C(\N)c3nc(C)c(Cl)c(C)n3)c2)nc(C)c1Cl [compound 715] as the compound, how does the logP (method marked [b] in Table 1) read?
Answer: 3.29^[b]
